Test results: patent publication US9499729B2, “Compositions and methods containing fluorine substituted olefins” (HONEYWELL INTERNATIONAL INC., priority 2006, dated 2016)

Assays:
[1] = Solubility of Artemisinin in the extractant, solvent added to weighed sample until dissolved; assay type: physicochemical
Source text: A medicament, particularly a plant-derived Artemisinin which is an anti-malarial drug, is extracted from the Artemisia annua plant. A sample of Artemisinin was weighed into a vial.

[2] = Compatibility/stability of refrigerant with lubricating oil in contact with aluminum, copper and steel coupons, sealed tube, one week, visual observation; assay type: physicochemical; conditions: one week at 350° C., liquid contents turn black
Experimental: The compatibility of the refrigerant compounds and compositions of the present invention with PAG lubricating oils while in contact with metals used in refrigeration and air conditioning systems is tested at 350° C., representing conditions much more severe than are found in many refrigeration and air conditioning applications.
Aluminum, copper and steel coupons are added to heavy walled glass tubes. Two grams of oil are added to the tubes. The tubes are then evacuated and one gram of refrigerant is added. The tubes are put into an oven at 350° F. for one week and visual observations are made. At the end of the exposure period, the tubes are removed.
This procedure was done for the following combinations of oil and the compound of the present invention: • a) HFC-1234ze and GM Goodwrench PAG oil • b) HFC1243 zf and GM Goodwrench oil PAG oil • c) HFC-1234ze and MOPAR-56 PAG oil • d) HFC-1243 zf and MOPAR-56 PAG oil • e) HFC-1225 ye and MOPAR-56 PAG oil.
Aluminum, copper and steel coupons are added to a heavy walled glass tube with mineral oil and CFC-12 and heated for one week at 350° C., as in Example 3. At the end of the exposure period, the tube is removed and visual observations are made.

[3] = Flammability / flammability limit (ASTM E-681); assay type: physicochemical
Experimental: Flammability is another important property for many applications. That is, it is considered either important or essential in many applications, including particularly in heat transfer and blowing agent applications, to use compositions which are of low flammability or are non-flammable. Thus, it is frequently beneficial to use in such compositions compounds which are nonflammable. As used herein, the term “nonflammable” refers to compounds or compositions which are determined to be nonflammable as determined in accordance with ASTM standard E-681, dated 2002, which is incorporated herein by reference. Unfortunately, many HFC's which might otherwise be desirable for used in refrigerant or foam blowing agent compositions are not nonflammable. For example, the fluoroalkane difluoroethane (HFC-152a) and the fluoroalkene 1,1,1-trifluorpropene (HFO-1243zf) are each flammable and therefore not viable for use in many applications.

[4] = Toxicity as stated by applicants (no method given)
[5] = Miscibility with refrigeration lubricants, sealed glass tubes, visual observation of liquid phases; assay type: physicochemical
Experimental: The miscibility of HFO-1225ye and HFO-1234ze with various refrigeration lubricants is tested. […] For each refrigerant/oil combination, three compositions are tested, namely 5, 20 and 50 weight percent of lubricant, with the balance of each being the compound of the present invention being tested
The lubricant compositions are placed in heavy-walled glass tubes. The tubes are evacuated, the refrigerant compound in accordance with the present invention is added, and the tubes are then sealed. The tubes are then put into an air bath environmental chamber, the temperature of which is varied from about −50° C. to 70° C. At roughly 10° C. intervals, visual observations of the tube contents are made for the existence of one or more liquid phases.

[6] = Solubility of Jasmone in the fluoroolefin, sealed glass tube, frozen and thawed; assay type: physicochemical
Experimental: The compositions of the present invention also provide advantage when used as part of, and in particular as a carrier for, flavor formulations and fragrance formulations. […] 1.73 grams of R-1234ze were added to the glass tube. The tube was then frozen and sealed. […] The solution contained 20 wt. % Jasome and 80 wt. % R-1234ze, thus establishing favorable use a carrier for flavor formulations and fragrances. It also establishes its potential as an extractant of biologically active compounds (such as Biomass) and fragrances, including from plant matter. In certain embodiments, it may be preferred to use the present composition for in extraction applications with the present fluid in its supercritical state. This an other applications of involving use of the present compositions in the supercritical or near supercritical state are described hereinafter.
Approximately 0.39 grams of Jasmone were put into a heavy walled glass tube and approximately 1.73 grams of transHFC-1233zd were added to the glass tube. The tube was then frozen and sealed. […] The solution contained about 20 wt. % Jasome and about 80 wt. % transHFCO-1233zd.
Approximately 0.39 grams of Jasmone are put into a heavy walled glass tube and approximately 1.73 grams of cisHFC-1233zd are added to the glass tube. The tube is then frozen and sealed. […] The solution contains about 20 wt. % Jasmone and about 80 wt. % cisHFCO-1233zd.

[7] = Dissolution of silicone lubricant in the solvent; assay type: physicochemical; conditions: silicone oil added to a concentration of about 10 weight percent
Experimental: A compound of Formula II, namely, transHFCO-1233zd was transferred to a glass container. A silicon lubricant, particularly a high-viscosity (12,500 cP) silicone oil, was added to the transHFCO-1233zd solvent to a concentration of about 10 weight percent.
A compound of Formula II, namely, cisHFCO-1233zd is transferred to a glass container. A silicon lubricant, particularly a high-viscosity (12,500 cP) silicone oil is added to the cisHFCO-1233zd solvent to a concentration of about 10 weight percent.
A combination of transHFCO-1233zd and trans-1,2-dichloroethylene are prepared in transHFCO-1233zd:trans-1,2-dichloroethylene weight ratios of 25:75 and 50:50. Each combination is then added to a glass container. A silicon lubricant, particularly a high-viscosity (12,500 cP) silicone oil is added to each solvent to a concentration of about 10 weight percent.
A combination of cisHFCO-1233zd and trans-1,2-dichloroethylene are prepared in cisHFCO-1233zd:trans-1,2-dichloroethylene weight ratios of 25:75 and 50:50. Each combination is then added to a glass container. A silicon lubricant, particularly a high-viscosity (12,500 cP) silicone oil is added to each solvent to a concentration of about 10 weight percent.

[8] = Dissolution of synthetic PAG lubricant in the solvent; assay type: physicochemical; conditions: PAG lubricant ND-8; combinations in approximate weight ratios: /methanol 98:2, /pentane 96:4, /methanol/pentane 92:2:6
Experimental: A synthetic lubricant, specifically polyalkyleneglycol (PAG) lubricant, and more specifically a PAG consisting essentially of 2 or more oxypropylene groups and having a viscosity of from about 10 to about 200 centistokes at about 37° C. (sold under the trade designation ND-8 by Idemitsu Kosan) are added to a vial containing transHFCO-1233zd. […] The properties of the synthetic lubricant ND-8 are identified below in Table 11 below.
A synthetic lubricant, specifically polyalkyleneglycol (PAG) lubricant, and more specifically a PAG consisting essentially of 2 or more oxypropylene groups and having a viscosity of from about 10 to about 200 centistokes at about 37° C. (sold under the trade designation ND-8 by Idemitsu Kosan) are added to a vial containing cisHFCO-1233zd.
The PAG lubricant described in Example 45 above is added to vials containing, respectively, transHFCO-1233zd/methanol in an approximate 98:2 weight ratio, transHFCO-1233zd/pentane in an approximate 96:4 weight ration and transHFCO-1233zd/methanol/pentane in an approximate 92:2:6 weight ratio.
The PAG lubricant described in Example 45 above is added to vials containing, respectively, cisHFCO-1233zd/methanol in an approximate 98:2 weight ratio, cisHFCO-1233zd/pentane in an approximate 96:4 weight ration and cisHFCO-1233zd/methanol/pentane in an approximate 92:2:6 weight ratio.

## C[C@@H]1CC[C@H]2[C@@H](C)C(=O)O[C@@H]3O[C@@]4(C)CC[C@@H]1[C@]32OO4 [Artemisinin]
[1]; solvent cisHFCO-1233zd
  solubility in cisHFCO-1233zd (soluble up to): approximately 3 weight percent
[1]; solvent transHFCO-1233zd
  solubility in transHFCO-1233zd (soluble up to): approximately 3 weight percent

## FC(F)(Cl)Cl [CFC-12, Dichlorodifluoromethane]
[2]
  visual observation of tube contents (stability with mineral oil and metals): severe decomposition

## FC(F)(F)C=CCl [HCFO-1233zd, 1,1,1-trifluo-3,chloro-propene]
[3]
  flammability: relatively low flammability
[4]
  toxicity: relatively low toxicity

## FC=C(F)C(F)(F)F [HFO-1225ye, 1,1,1,2,3 pentafluoropropene]
[5]; 50 weight percent concentration of the PAG in refrigerant, at 60°
  miscibility with polyalkylene glycol: miscible
[5]; at 70° C., from 5 to 50 weight percent lubricant in refrigerant
  miscibility with polyalkylene glycol: miscible
[5]; from −20 to 50° C.
  miscibility with polyalkylene glycol: partially miscible
[5]; temperature range of −50° C. to −30° C.
  miscibility with polyalkylene glycol: immiscible
[4]; pentafluoropropene with a hydrogen substituent on the terminal unsaturated carbon
  degree of toxicity in comparison to CF3CH═CF2 (HFO-1225zc): relatively low degree of toxicity

## FC=CC(F)(F)F [HFO-1234ze, 1,1,1,3-tetrafluoropropene]
[3]
  flammability: relatively low flammability
[4]
  toxicity: relatively low toxicity

## CC/C=C\CC1=C(C)CCC1=O [Jasmone]
[6]; 0.39 grams Jasmone and 1.73 grams R-1234ze: 20 wt. % Jasmone, 80 wt. % R-1234ze
  liquid phases of mixture with R-1234ze upon thawing: one liquid phase
[6]; solvent cisHFCO-1233zd, one liquid phase
  solubility in cisHFCO-1233zd (soluble up to): about 20 weight percent
[6]; solvent transHFCO-1233zd, one liquid phase
  solubility in transHFCO-1233zd (soluble up to): about 20 weight percent

## FC(F)(F)/C=C\Cl [transHFCO-1233zd, 1,1,1-trifluo,3-chlororopropene]
[7]
  solution formed with silicone oil: homogeneous, single-phase solution
[8]
  concentration of PAG at which a homogeneous, single-phase solution is formed: greater than 10 % by weight
